Here are results for eight compounds from publication PMC5587309, “Involvement of arginine 878 together with Ca^2+ in mouse aminopeptidase A substrate specificity for N-terminal acidic amino-acid residues” (PLoS ONE, 2017).

Numbering of substitutions follows the chain as printed. Read-outs that look alike come from different tables or passages of the source.

For orientation: Ki means the equilibrium dissociation constant of an inhibitor or competing ligand from its target. Usually Km stands for the substrate concentration at which the rate is half of its maximum. As a reminder, the kcat is the maximal rate divided by the concentration of active sites.

What all share (assay type): biochemical
For experiment [1], the target named is T1, R878A mutated mAPA (Mus musculus, UniProt P16406, R878A).
T1 construct: made in house; host or cells: stably transfected CHO-K1 cells
T1 sequence (P16406 1-945 R878A): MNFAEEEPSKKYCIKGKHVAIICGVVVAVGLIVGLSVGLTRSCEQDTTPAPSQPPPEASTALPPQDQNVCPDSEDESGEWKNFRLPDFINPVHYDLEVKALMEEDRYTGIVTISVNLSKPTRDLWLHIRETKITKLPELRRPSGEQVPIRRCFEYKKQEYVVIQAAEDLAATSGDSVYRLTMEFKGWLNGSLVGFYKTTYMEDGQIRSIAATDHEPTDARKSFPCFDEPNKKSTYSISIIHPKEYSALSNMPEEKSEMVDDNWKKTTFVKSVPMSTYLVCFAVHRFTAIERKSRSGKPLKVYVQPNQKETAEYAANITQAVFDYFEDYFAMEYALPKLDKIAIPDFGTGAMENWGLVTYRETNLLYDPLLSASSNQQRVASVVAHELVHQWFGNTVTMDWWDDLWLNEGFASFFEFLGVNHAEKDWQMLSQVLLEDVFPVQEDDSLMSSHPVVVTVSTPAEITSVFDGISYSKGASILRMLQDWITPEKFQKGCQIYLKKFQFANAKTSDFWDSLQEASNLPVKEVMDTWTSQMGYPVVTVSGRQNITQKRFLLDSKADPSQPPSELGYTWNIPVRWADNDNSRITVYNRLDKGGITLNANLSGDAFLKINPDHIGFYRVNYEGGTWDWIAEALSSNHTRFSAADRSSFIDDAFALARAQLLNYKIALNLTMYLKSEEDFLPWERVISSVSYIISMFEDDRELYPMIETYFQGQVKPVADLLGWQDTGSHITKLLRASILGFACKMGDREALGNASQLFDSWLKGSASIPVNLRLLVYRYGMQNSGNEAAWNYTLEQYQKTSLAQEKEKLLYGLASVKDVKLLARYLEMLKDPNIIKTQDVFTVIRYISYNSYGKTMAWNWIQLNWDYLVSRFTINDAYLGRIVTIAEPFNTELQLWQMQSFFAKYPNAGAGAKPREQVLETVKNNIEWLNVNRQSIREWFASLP
Briefly: Inhibition of GluNA hydrolysis by purified recombinant R878A His-mAPA. To be noted: R878A mAPA; for Ki: 0.5 mM GluNA, read-out: Ki. The method, then: (§1) Enzyme assays were carried out for wild-type and mutated His-mAPAs in 50 mM Tris-HCl buffer, pH 7.4, with or without 4 mM CaCl2, by monitoring the rate of hydrolysis of GluNA, as previously described. The sensitivity to Ca^2+ of purified wild-type and mutated His-mAPA was determinated by incubating 0.5 mM GluNA with 0 to 4 mM CaCl2 in a final volume of 100 μl of 50 mM Tris-HCl buffer, pH 7.4. All the assays were performed in black 96-well plates (solid black 96-well flat-bottomed non-treated plates with no lid; Corning Costar). All of the enzymatic studies were performed such that substrate hydrolysis rates were maintained below 10% (initial rate conditions). The kinetic curves were monitored by following the increase in fluorescence at 460 nm (lex = 330 nm), induced by the release of the β-naphthylamide fluorogenic part of the substrate by APA. Fluorescence signals were monitored by counting photons with a spectrophotometer (Fusion universal microplate analyser; Packard) equipped with a temperature control device and a plate shaker. The kinetic parameters (Km and kcat) were determined from Michaelis-Menten plots, using GraphPad Prism 4 software (GraphPad) with a final concentration of substrate (GluNA) from 0.005 to 5 mM with or without 4 mM Ca^2+. For evaluation of the substrate specificity of APA with or without 4 mM Ca^2+, the rate of hydrolysis of […] additional substrates, α-L-aspartate-β-naphthylamide (AspNA), α-L-alanine-β-naphthylamide (AlaNA) and basic α-L-lysine-β-naphthylamide (LysNA), was determined under the same experimental conditions as described for GluNA. The sensitivity of wild-type and mutated His-mAPAs to inhibition by [(3S)-3-amino-4-sulfanyl-butane-1-sulfonic acid] (EC33), glutamate-thiol (GluSH), glutamate-phosphonic-acid (GluPO3H2), methionine-thiol (MetSH) and lysine-thiol (LysSH) was determined by establishing dose-dependent inhibition curves for a final GluNA concentration of 0.5 mM in the presence or absence of 4 mM CaCl2. These compounds being linear competitive inhibitors, their Ki were calculated from the formula Ki = IC50/ (1+ [GluNA]/Km).

In another experiment the target is T2, wild-type mAPA (Mus musculus, UniProt P16406).
T2 construct: made in house; host or cells: stably transfected CHO-K1 cells
T2 sequence (P16406 1-945): T1 sequence (P16406 1-945 R878A) with A878R
Briefly: Inhibition of GluNA hydrolysis by purified recombinant wild-type His-mAPA. The settings on record: wild-type mAPA; for Ki: 0.5 mM GluNA, read-out: Ki. The method, then:
as §1

Experiment [2] deals with T1, R878A mutated mAPA. In words: Kinetic parameters of substrate hydrolysis by R878A His-mAPA. The method, then: as §1

For the compound `N[C@H](CS)CCC(=O)O` [GluSH, (4S)-4-amino-5-sulfanylpentanoic acid], the “enhancement of inhibitory potency by 4 mM Ca2+ compared to Ki in the absence of Ca2+” value came to 1.7 fold at R878A mutated mAPA [1] and 5.0 fold on wild-type mAPA. The inhibition constant Ki amounted to 983 ± 160 nM at R878A mutated mAPA [1] (4 mM Ca2+), 1720 ± 190 nM at R878A mutated mAPA [1] (absence of calcium), 314 ± 33 nM at wild-type mAPA (4 mM Ca2+) and 1570 ± 270 nM at wild-type mAPA (absence of calcium).

With `NCCCC[C@H](N)C(=O)Nc1ccc2ccccc2c1` [HLysβNA, α-L-lysine-β-naphthylamide], at R878A mutated mAPA [2] (4 mM Ca2+), the Km was determined as 159 ± 7.8 µM and the kcat amounted to 11.6 ± 0.2 s⁻¹. Moreover, at R878A mutated mAPA [2] (no Ca2+), the Km was 394 ± 57 µM and the turnover number (kcat) is 13.8 ± 0.7 s⁻¹.

`N[C@H](CS)CCS(=O)(=O)O` [EC33, (3S)‐3‐amino‐4‐sulfanylbutane‐1‐sulfonic acid]: the Ki turned out to be 2000 ± 200 nM on R878A mutated mAPA [1] (4 mM Ca2+) and 268 ± 22 nM on wild-type mAPA (4 mM Ca2+).

Regarding `C[C@H](N)C(=O)Nc1ccc2ccccc2c1` [HAlaβNA, α-L-alanine-β-naphthylamide], the results for the Km on R878A mutated mAPA [2] (4 mM Ca2+) and at R878A mutated mAPA [2] (no Ca2+) were 544 ± 74 µM and 651 ± 43.8 µM, respectively. Also, the kcat on R878A mutated mAPA [2] (4 mM Ca2+) was 41.5 ± 1.6 s⁻¹; on R878A mutated mAPA [2] (no Ca2+) it was 12.6 ± 0.04 s⁻¹.

As for `NCCCC[C@H](N)CS` [LysSH, (2S)-2,6-diaminohexane-1-thiol], the Ki is 7510 ± 660 nM on R878A mutated mAPA [1] (4 mM Ca2+), 118 ± 13 nM at R878A mutated mAPA [1] (absence of calcium), 13400 ± 1700 nM at wild-type mAPA (4 mM Ca2+) and 317 ± 30 nM on wild-type mAPA (absence of calcium).

Regarding `CSCC[C@H](N)CS` [MetSH], the inhibitory constant (Ki) at R878A mutated mAPA [1] (4 mM Ca2+) was determined as 3220 ± 200 nM; at R878A mutated mAPA [1] (absence of calcium) it was 475 ± 140 nM; on wild-type mAPA (4 mM Ca2+), 9180 ± 770 nM; at wild-type mAPA (absence of calcium) it was 750 ± 46 nM.

For `N[C@@H](CC(=O)O)C(=O)Nc1ccc2ccccc2c1` [HAspβNA, α-L-aspartate-β-naphthylamide], the values for the Michaelis-Menten constant (Km) on R878A mutated mAPA [2] (4 mM Ca2+) and on R878A mutated mAPA [2] (no Ca2+) were 199 ± 10.1 µM and 1220 ± 24.9 µM, respectively. Also, the results for the kcat on R878A mutated mAPA [2] (4 mM Ca2+) and on R878A mutated mAPA [2] (no Ca2+) were 17.9 ± 0.2 s⁻¹ and 1.89 ± 0.2 s⁻¹, respectively.

For the compound `N[C@@H](CCC(=O)O)C(=O)Nc1ccc2ccccc2c1` [HGluβNA, α-L-glutamyl-β-naphthylamide], on R878A mutated mAPA [2] (4 mM Ca2+), the Km was determined as 221 ± 4 µM and the kcat was 22.4 ± 0.1 s⁻¹. At R878A mutated mAPA [2] (no Ca2+), the Km worked out at 1500 ± 79.6 µM and the kcat is 4.95 ± 0.1 s⁻¹. In addition, on R878A mutated mAPA [2] (presence of Ca2+), the “decrease in hydrolysis velocity (kcat) compared to wild-type (factor)” value is 4 and the “decrease in the affinity of the enzyme for the substrate compared to wild-type (factor)” value is on record as 6.
